Key:
[1] = test system: macrophages; assay: Macrophage growth (WST-1) and cell death; type: cell-based, human; details: 3 μM, 72 hours
[2] = test system: 1205Lu melanoma cells; assay: Matrigel Transwell invasion assay with 1205Lu-MΦ conditioned medium; type: cell-based, human; details: anti-CCL2 10 μg/ml
Description: The invasion assay was conducted with 24-well Transwell inserts (8 μm pore size; Corning). For the MCMI-MΦ-induced invasion assay, 4×10^5 1205Lu melanoma cells in 2% FBS RPMI1640 medium were added in the upper chamber precoated with 50 μl Matrigel (1:3 dilution, BD Biosciences). Media from 1205Lu-MΦ were added to the lower chamber, and R10 medium was used as a control. After overnight incubation, cells that had invaded
were fixed and stained with Diff-Quick staining kit (ThermoFisher). The stained cells in 4 randomly chosen fields were counted for each insert (200×). […]
We used a Matrigel Transwell assay and compared invasion of melanoma cells attracted to the supernatant of 1205Lu-MΦ alone or the supernatant with an anti-CCL2 monoclonal antibody and a pan-MMPs inhibitor GM6001 (see FIG. 7; see also FIG. 4(A)-(E) of Reference 11).

[3] = test system: 1205Lu xenograft; assay: 1205Lu xenograft tumor growth in nude mice; type: in vivo
Description: 5×10^5 1205Lu cells were subcutaneously injected to Nude mice (Female, 8 weeks old).
Tumor size was measured by a caliper. Tumor volume was calculated by the formula: Volume width×wide×length/2. The results are shown in the plot of FIG. 12A, plotting tumor volume vs. day.
Tumors from the experiment described immediately above were extracted and weighted after mice were euthanized. Tumor weight in grams was plotted vs. control or an agent defined along the x axis of FIG. 22A.
All studies were conducted under IACUC guidelines. 7 weeks old BALB/c female nude mice (National Cancer Institute) were injected subcutaneously with 1×10^61205Lu cells in 50% Matrigel (BD Biosciences) in both flanks of mice. When xenografts reached volumes of approximately 100 mm^3, mice were randomly grouped to four groups, with 5 animals per group. GW2580 was dissolved in 0.5% hydroxypropylmethylcellulose (Sigma-Aldrich, MO, USA) and 0.1% Tween 80, and was dosed orally at 160 mg/Kg once daily. […] Tumor volumes were measured every three days using a digital caliber and were calculated using the equation V=0.5×L×W^2. Mice tumors were weighted after mice were euthanized.
1205Lu cells were injected s.c into both flanks of nude mice. […] ANOVA was used to compare the differences in tumor volume. Mice were euthanized on day 14, peritoneal cells were harvested for flow cytometric analysis of the percent of F4/80 positive macrophages. Immunohistochemistry analysis of the expression of F4/80, phospho-ERK and Ki67 in tumors was conducted. The results are shown in FIGS. 12A-E. See, also the data in FIGS. 3B and 3C

[4] = test system: melanoma cells co-cultured with macrophages; assay: Melanoma/macrophage transwell co-culture: growth (WST-1) and cell death; type: cell-based, human; details: for macrophage-mediated resistance of melanoma cells to BRAFi (cell growth, anti-cell death effect): co-culture with macrophages in presence of PLX4720, 3 days
[5] = test system: peritoneal F4/80 positive macrophages; assay: Flow cytometric analysis of peritoneal macrophages of treated xenograft mice; type: in vivo; details: day 14
[6] = test system: 1205Lu xenograft tumor tissues; assay: Immunohistochemistry of xenograft tumors (F4/80, phospho-ERK, Ki67); type: in vivo, mice; details: for Ki67 positive cells in tumor tissues / signaling of phospho-ERK in tumor tissues: compared to control mice; for F4/80 positive macrophages in tumors: day 14
[7] = test system: 1205Lu and A375 melanoma cells; assay: Melanoma cell growth (WST-1) and cell death (Annexin V/7-AAD), cells cultured alone; type: cell-based, human
[8] = test system: 1205Lu; assay: Western blot of 1205Lu cells treated with PLX4720, GW2580, soluble M-CSFR with or without MCMI-Mφ; type: cell-based, human; details: 10 μM, 3 days, without MCMI-Mφ
[9] = test system: VEGF production in macrophages; assay: Intracellular staining for VEGF production in macrophages; details: 4 hours
[10] = test system: 1205Lu; assay: Western blot for cPARP in 1205Lu cells; type: cell-based, human; details: PLX4720 1, 3, 10 μM, 2 days, with or without macrophages
[11] = test system: MAPK pathway in macrophages; assay: Immunoblotting of MAPK signaling in macrophages; type: cell-based, human; details: 2 hours; accompanied by phosphorylation of CRAF
Description: For macrophages, after monocytes were differentiated to the macrophages, cells in 2% FBS melanoma media were seeded into 15 ml tubes. […] Immunoblotting were performed as described previously. The following antibodies were used: anti-phospho-ERK, ERK, Phospho-VEGFR1, phospho-CRAF, CRAF, PCNA, HSP90 and Rab11.
Cells were harvested for immunoblotting of antibodies to pERK (short expression), pERK, ERK, pCRAF (S338), CRAF, and Rab11 as shown in FIG. 11A. An ELISA assay was performed to determine the activation of RAS in 3 macrophage donors and the melanoma cells A375 and 1205Lu. As see in FIG. 11B, macrophages have high basal level of RAS activation.

[12] = test system: MAPK pathway (pERK) in melanoma cells; assay: Immunoblotting of MAPK signaling in melanoma cells; type: cell-based, human; details: VEGF 10 ng/ml and PLX4720 1 μM, 4 hours
Description: Macrophages and melanoma co-culture system was set up as described above. Melanoma cells were cultured same as Proliferation assay for 6 hours and were harvested for Immmunoblotting with following antibodies: phspho-ERK, total ERK, HSP90, phosphor-AKT, AKT, phosphor-NF-κB, phospho-CRAF, total CRAF, Phospho-ARAF, RAB11, Vinculin.
Cells were harvested for immunoblotting with antibodies to pERK, ERK, HSP90. VEGF increases the activation of MAPK pathway (FIG. 10C).
Relative cell growth and cell death were determined as above.

CC(C)(C)c1nc(-c2cccc(NS(=O)(=O)c3c(F)cccc3F)c2F)c(-c2ccnc(N)n2)s1 [Dabrafenib]
macrophage apoptosis / cell death [1]: protects macrophage from cell death

CNC(=O)[C@H](Cc1c[nH]c2ccccc12)NC(=O)[C@@H](CC(=O)NO)CC(C)C [GM6001]
1205Lu-MΦ supernatant induced melanoma invasion ([2]; GM6001 10 μM, Matrigel Transwell): did not have a significant effect
melanoma cell invasion (FIG. 7) ([2]; MMPi 5 μM, 18 h, 1205Lu-MΦ CM): marginally increased melanoma cell invasion

COc1ccc(COc2ccc(Cc3cnc(N)nc3N)cc2OC)cc1 [GW2580, 5-(3-methoxy-40((4-methoxybenzyl)oxy)benzyl)pyrimidine-2,4-diamine]
efficacy compared with PLX4720 alone ([3]; 14 days, GW2580 160 mg/kg vs PLX4720): less efficacious than PLX4720
tumor size / tumor growth ([3]; after 14 days of oral treatment, GW2580 160 mg/kg, PLX4720 30 mg/ml as printed): significantly decreased tumor size
effect on anti-tumor activity of PLX4720 on 1205Lu xenograft tumor growth (FIG. 12A) ([3]; oral, 14 days): increases anti-tumor activity of PLX4720
macrophage-mediated resistance of melanoma cells to BRAFi (cell growth, anti-cell death effect) [4]: can reverse macrophage-mediated resistance
numbers of peritoneal F4/80 positive macrophages [5]: significant decrease
Ki67 positive cells in tumor tissues [6]: fewer
signaling of phospho-ERK in tumor tissues [6]: decreased signaling
F4/80 positive macrophages in tumors [6]: abolished
melanoma growth and death in vitro ([7]; GW2580 alone, 72 hours): did not have significant effects
expression of pERK, pAKT, pS6, pRSK90 (Western blot) [8]: all blots appear similar to col. 4

COc1cc2nccc(Oc3ccc(NC(=O)NC4CC4)c(Cl)c3)c2cc1C(N)=O [Lenbatinib]
macrophage-mediated resistance of melanoma cells to BRAFi (cell growth, anti-cell death effect) [4]: reverse macrophage-mediated resistance

CCCS(=O)(=O)Nc1ccc(F)c(C(=O)c2c[nH]c3ncc(Cl)cc23)c1F [PLX4720]
BRAFi-induced growth inhibition and cell death of melanoma cells when co-cultured with macrophages ([4]; 0-10 μM, 3 days, 1205Lu, A375, SK-MEL-28, 451Lu): significantly protected from PLX4720-induced growth inhibition and cell death
numbers of peritoneal F4/80 positive macrophages [5]: amplified this effect
macrophage apoptosis / cell death [1]: protects macrophage from apoptosis
Ki67 positive cells in tumor tissues [6]: fewer
signaling of phospho-ERK in tumor tissues [6]: decreased signaling
F4/80 positive macrophages in tumors [6]: significant decrease
production of VEGF in macrophages [9]: significantly increased
cPARP gel (Western blot) [10]: showed a second blot
MAPK signaling in macrophages [11]: strongly activated

VEGF
MAPK pathway in melanoma cells [12]: activated the MAPK pathway
rescue of PLX4720-induced cell growth inhibition ([7]; VEGF 10 ng/ml with PLX4720, 3 days): rescued PLX4720-induced cell growth inhibition

m-CSFR: soluble M-CSFR
expression of pERK, pAKT, pS6, pRSK90 (Western blot) [8]: no change from control

Reference: patent US20150166646A1, “Methods and Compositions for Treating or Diagnosing Melanoma” (The Wistar Institute of Anatomy and Biology, priority 2012, published 2015)
